Columns and labels:
[1] = Mean residence time (0 to t) in Sprague-Dawley rat at 5 mg/kg, po measured up to 24 hrs by LC-MS/MS analysis; assay type: ADME, organism-based; conditions: in vivo
[2] = AUC (0 to infinity) in Sprague-Dawley rat at 1 mg/kg, iv measured up to 24 hrs by LC-MS/MS analysis; assay type: ADME, organism-based; design: dose 1 mg/kg, time infinity, route intravenous; conditions: in vivo
[3] = Mean residence time (0 to t) in Sprague-Dawley rat at 1 mg/kg, iv measured up to 24 hrs by LC-MS/MS analysis; assay type: ADME, organism-based; conditions: in vivo
[4] = AUCt in Sprague-Dawley rat at 5 mg/kg, po measured up to 24 hrs by LC-MS/MS analysis; assay type: ADME, organism-based; design: time < 24 hr, dose 5 mg/kg, route oral; conditions: in vivo
[5] = AUCt in Sprague-Dawley rat at 1 mg/kg, iv measured up to 24 hrs by LC-MS/MS analysis; assay type: ADME, organism-based; design: dose 1 mg/kg, time < 24 hr, route intravenous; conditions: in vivo
in vitro [6] = conditions: human, liver microsomes
[7] = Tmax in Sprague-Dawley rat at 5 mg/kg, po measured up to 24 hrs by LC-MS/MS analysis; assay type: ADME, organism-based; conditions: in vivo
[8] = Apparent volume of distribution in Sprague-Dawley rat at 5 mg/kg, po measured up to 24 hrs by LC-MS/MS analysis; assay type: ADME, organism-based; conditions: in vivo
in vitro [9] = conditions: rat, liver microsomes
[10] = Half-life in Sprague-Dawley rat at 5 mg/kg, po measured up to 24 hrs by LC-MS/MS analysis; assay type: ADME, organism-based; conditions: in vivo
[11] = Cmax in Sprague-Dawley rat at 5 mg/kg, po measured up to 24 hrs by LC-MS/MS analysis; assay type: ADME, organism-based; design: dose 5 mg/kg, route oral; conditions: in vivo
[12] = AUC (0 to infinity) in Sprague-Dawley rat at 5 mg/kg, po measured up to 24 hrs by LC-MS/MS analysis; assay type: ADME, organism-based; design: dose 5 mg/kg, route oral, time infinity; conditions: in vivo
[13] = Apparent clearance in Sprague-Dawley rat at 5 mg/kg, po measured up to 24 hrs by LC-MS/MS analysis; assay type: ADME, organism-based; conditions: in vivo, read-out: CL(app) (converted)
[14] = Cmax in Sprague-Dawley rat at 1 mg/kg, iv measured up to 24 hrs by LC-MS/MS analysis; assay type: ADME, organism-based; design: dose 1 mg/kg, route intravenous; conditions: in vivo
[15] = Half-life in Sprague-Dawley rat at 1 mg/kg, iv measured up to 24 hrs by LC-MS/MS analysis; assay type: ADME, organism-based; conditions: in vivo
[16] = human, microsomes, 0.25 h, 1 µM
[17] = Apparent clearance in Sprague-Dawley rat at 1 mg/kg, iv measured up to 24 hrs by LC-MS/MS analysis; assay type: ADME, organism-based; conditions: in vivo, read-out: CL(app) (converted)
[18] = Oral bioavailability in Sprague-Dawley rat at 5 mg/kg measured up to 24 hrs by LC-MS/MS analysis; assay type: ADME, organism-based; conditions: in vivo
[19] = Apparent volume of distribution in Sprague-Dawley rat at 1 mg/kg, iv measured up to 24 hrs by LC-MS/MS analysis; assay type: ADME, organism-based; conditions: in vivo, read-out: Vz
[20] = rat, microsomes, 0.25 h, 1 µM

- MRT last at 24 h [1]: 5.9 h
- AUC(0-inf) [2]: 161 ng·h/mL
- MRT last at 24 h [3]: 2.75 h
- AUC(0-t) at 24 h [4]: 173 ng·h/mL
- AUC(0-t) at 24 h [5]: 152 ng·h/mL
- half-life at 0.25 h, 1 µM (in vitro [6]): 1.95 h
- Tmax [7]: 2.83 h
- Vz [8]: 105.05 L/kg
- half-life at 0.25 h, 1 µM (in vitro [9]): 8.27 min
- half-life [10]: 3.07 h
- Cmax [11]: 27 ng/mL
- AUC(0-inf) [12]: 194 ng·h/mL
- CL/F [13]: 445 mL/min/kg
- Cmax [14]: 205 ng/mL
- half-life [15]: 1.96 h
- CLH [16]: 0.0118 mL/min/kg
- clearance [17]: 110 mL/min/kg
- bioavailability [18]: 22.8%
- Vd [19]: 18.2 L/kg
- CLH [20]: 0.168 mL/min/kg
Structure (SMILES): CN1CCC(Nc2ccc(C(=O)Nc3cc(-c4ccc5c(c4)OCO5)n[nH]3)cc2)CC1

Source: ChEMBL document CHEMBL4350983, “Combining structure- and property-based optimization to identify selective FLT3-ITD inhibitors with good antitumor efficacy in AML cell inoculated mouse xenograft model” (Eur J Med Chem, 2019)
